This data set has as its system LPA1. The data set can be described thus: In-vivo PET imaging in cynomolgus monkeys, lung SUV and % displacement. More on the design: species or system cynomolgus monkey. Conditions: healthy cynomolgus monkeys, listed as [^18F]-(1S,3S)-3-(6-(5-((((4-(fluoro)butyl)(methyl)carbamoyl)oxy)methyl)-1-meth)). The protocol: [^18F]-(1S,3S)-3-((6-(5-((((4-(fluoro)butyl)(methyl)carbamoyl)oxy)methyl)-1-methyl-1H-1,2,3-triazol-4-yl)-2-methylpyridin-3-yl)oxy)cyclohexane-1-carboxylic acid was tested as an LPA1 PET radioligand to validate the target engagement of LPA1 antagonist used in normal healthy cynomolgus monkeys and to support future clinical use of this agent as a PET radioligand. In this experiment, the specific binding to LPA1, PET imaging in normal healthy cynomolgus monkeys (n=3) was performed. PET images were acquired at baseline and again at after oral administration of an LPA1 antagonist (3, 10, and 30 mg/kg) or vehicle solution (0.5% Methocel A4M: 0.1% Tween 80 (Polysorbate 80): 99.4% Water) only. The oral dosing time of LPA1 antagonist or vehicle was 3 hours prior to [^18F]-labeled antagonist injection. Cynomolgus monkeys on study were fasted beginning the morning of the imaging day. Veterinary Scientists induced initial anesthesia pre-op cocktail of 0.02 mg/kg Atropine, and 5 mg/kg Telazol, 0.1 mg/kg Hydromorphone IM. […] Vital signs were continuously monitored throughout the imaging study. […] After returning to a conscious state, the monkey was transferred to an isolation room with food and water until the radioactivity was decayed to background levels. […]

The structures appear in SMILES notation. “And” between values parts separate entries of the source, which are not always exact repeats. Identical values can stand only once.

With `Cc1nc(-c2nnn(C)c2COC(=O)N(C)CCCC[18F])ccc1O[C@H]1CCC[C@H](C(=O)O)C1` [Example 16], the “SUV in Lung (60-90 min)” value (individual baseline scans) was 0.307 and 0.428 and 0.333 and 0.273 and 0.356 and 0.379 and 0.403 and 0.459. For the same compound, the “average SUV at baseline for individual animals” value (lung, mean of baseline scans per animal) is 0.398 and 0.321 and 0.391.

These data come from patent publication US20210379210A1, “RADIOLIGANDS FOR IMAGING THE LPA1 RECEPTOR” (BRISTOL-MYERS SQUIBB COMPANY, priority 2018, published 2021).
